Laboratory results: patent US12577231B2, “Androgen receptor PROTACS” (GlaxoSmithKline Intellectual Property Development Limited, priority 2023, dated 2026)

These compounds were tested against T1, Androgen Receptor dual T878A/L702H mutant protein (Homo sapiens, UniProt P10275, L702H/T878A) (assay: Dual Mutant (T878A/L702H) Androgen Receptor Degradation Assay (HTRF, MDA-PCa-2b cells)). Settings: 18 h, 18 h incubation, read-out: mean asymptote max.
T1 construct: host or cells: MDA-PCa-2b
T1 sequence (P10275 1-920 L702H/T878A): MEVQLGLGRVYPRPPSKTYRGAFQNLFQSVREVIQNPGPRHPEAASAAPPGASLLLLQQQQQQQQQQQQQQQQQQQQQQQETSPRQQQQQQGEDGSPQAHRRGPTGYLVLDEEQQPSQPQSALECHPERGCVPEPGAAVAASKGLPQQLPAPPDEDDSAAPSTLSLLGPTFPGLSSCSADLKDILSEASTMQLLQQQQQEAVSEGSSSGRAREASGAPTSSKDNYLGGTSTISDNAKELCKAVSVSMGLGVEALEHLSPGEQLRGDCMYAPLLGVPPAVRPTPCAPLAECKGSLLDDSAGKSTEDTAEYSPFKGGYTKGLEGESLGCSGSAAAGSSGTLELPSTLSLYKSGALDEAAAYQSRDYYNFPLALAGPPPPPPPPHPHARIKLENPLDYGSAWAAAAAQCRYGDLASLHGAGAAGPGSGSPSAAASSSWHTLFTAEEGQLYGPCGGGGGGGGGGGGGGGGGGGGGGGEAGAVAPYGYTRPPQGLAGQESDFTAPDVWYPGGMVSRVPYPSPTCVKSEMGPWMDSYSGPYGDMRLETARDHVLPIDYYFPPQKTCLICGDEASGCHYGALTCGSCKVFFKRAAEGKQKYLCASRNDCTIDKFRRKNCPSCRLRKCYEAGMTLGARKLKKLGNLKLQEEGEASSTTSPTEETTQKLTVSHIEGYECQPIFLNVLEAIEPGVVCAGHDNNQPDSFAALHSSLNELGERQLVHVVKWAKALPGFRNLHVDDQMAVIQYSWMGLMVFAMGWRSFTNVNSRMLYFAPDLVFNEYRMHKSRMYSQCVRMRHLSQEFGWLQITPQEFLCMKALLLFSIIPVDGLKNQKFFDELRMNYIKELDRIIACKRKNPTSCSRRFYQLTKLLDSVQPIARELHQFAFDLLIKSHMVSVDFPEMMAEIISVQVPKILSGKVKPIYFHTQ
Assay type: cell-based
Experimental: Degradation of Androgen Receptor dual T878A/L702H mutant protein in human MDA-PCa-2b (ATCC) cells treated with PROTACs was quantified using the HTRF Human Androgen Receptor Detection Kit (PerkinElmer) in 384 well assay plate format. 10 mM DMSO (Sigma-Aldrich) stock solutions of PROTACs were prepared and diluted across an 11 concentration, 3-fold increment range, and 25 nL dispensed into a white opaque bottomed 384 well assay plate (Thermofisher) using an acoustic ECHO dispenser (Labcyte). Cells were cultured in growth medium (BRFF—HPC-1 (Athena ES) supplemented with 20% FBS (Gibco), penicillin 50U/mL and streptomycin 50 μg/mL (Gibco, #15140-122)) in collagen I or poly-D-lysine coated T175 flasks (Corning, #356487 or #356539, respectively). For the assay, cells were harvested from the flask, centrifuged at 200 g for 5 min and then resuspended in the growth medium. 25 μl of cell suspension containing 10,000 cells was dispensed into each well of the assay plate containing the test compounds, which was then incubated for 18 h at 37° C./5% CO2. Control wells were included on each assay plate, with assay medium without cells being the no AR remaining 100% effect control, and cells treated with DMSO vehicle only, without PROTAC, the 0% effect control. After 18 h incubation 8 μl of supplemented lysis buffer from HTRF kit was added to each well and the plate shaken at 500 rpm for 1 h at room temperature. 8 μl of antibody mix in Detection buffer from HTRF kit was added to each well and the plate was incubated for 2 h in dark at mom temperature. The fluorescence was measured at both 620 nm and 665 nm using an excitation wavelength of 337 nm with a PHERAstar microplate reader (BMG Labtech) and the % AR protein remaining in each well was calculated by normalising the HTRF ratio (665 nm signal/620 nm signal) value to the control wells mentioned above. Parameters corresponding to the potency and efficacy estimates of the PROTACs were obtained from these normalised values using curve fitting software (IDBS ActivityBase). These included the DC50 and the Dmax estimates. Two versions of the DC50, called relative DC50 and absolute DC50, were typically generated. These are the inflection point of a fitted 4 parameter sigmoidal response curve and the interpolated concentration of PROTAC corresponding to 50% of the protein being degraded, respectively. The Dmax parameter was the maximum experimentally observed degradation and the asymptote max parameter the fitted response curve asymptote maximum.

Compound	Dmax [%]
Cc1ccc2c(O[C@H]3C(C)(C)[C@H](NC(=O)c4ccc(N5CCC(CN6CCC(n7ncc8c(N9CCC(=O)NC9=O)cccc87)CC6)CC5)c(F)c4)C3(C)C)ccc(C#N)c2n1 [Example 7, N-((1r,3r)-3-((8-cyano-2-methylquinolin-5-yl)oxy)-2,2,4,4-tetramethylcyclobutyl)-4-(4-((4-(4-(2,4-dioxotetrahydropyrimidin-1(2H)-yl)-1H-indazol-1-yl)piperidin-1-yl)methyl)piperidin-1-yl)-3-fluorobenzamide]	≥ 50
CC1(C)[C@H](NC(=O)c2ccc(N3CCC(CN4CCC(n5ncc6c(N7CCC(=O)NC7=O)cccc65)CC4)CC3)c(F)c2)C(C)(C)[C@H]1Oc1ccc(C#N)c2c1CCO2 [Example 9, N-((1r,3r)-3-((7-Cyano-2,3-dihydrobenzofuran-4-yl)oxy)-2,2,4,4-tetramethylcyclobutyl)-4-(4-((4-(4-(2,4-dioxotetrahydropyrimidin-1(2H)-yl)-1H-indazol-1-yl)piperidin-1-yl)methyl)piperidin-1-yl)-3-fluorobenzamide]	≥ 50
CC1(C)[C@H](NC(=O)c2ccc(N3CCC(CN4CC[C@H](n5ncc6c(N7CCC(=O)NC7=O)cccc65)C4)CC3)c(F)c2)C(C)(C)[C@H]1Oc1ccc(C#N)c(Cl)c1 [Example 10, N-((1r,3r)-3-(3-Chloro-4-cyanophenoxy)-2,2,4,4-tetramethylcyclobutyl)-4-(4-(((S)-3-(4-(2,4-dioxotetrahydropyrimidin-1(2H)-yl)-1H-indazol-1-yl)pyrrolidin-1-yl)methyl)piperidin-1-yl)-3-fluorobenzamide]	≥ 50
CC1(C)[C@H](NC(=O)c2ccc(N3CCC(CN4CCC(n5ncc6c(N7CCC(=O)NC7=O)cc(F)cc65)CC4)CC3)c(F)c2)C(C)(C)[C@H]1Oc1ccc(C#N)c(Cl)c1 [Example 11, N-((1r,3r)-3-(3-Chloro-4-cyanophenoxy)-2,2,4,4-tetramethylcyclobutyl)-4-(4-((4-(4-(2,4-dioxotetrahydropyrimidin-1(2H)-yl)-6-fluoro-1H-indazol-1-yl)piperidin-1-yl)methyl)piperidin-1-yl)-3-fluorobenzamide]	≥ 50
CC1(C)[C@H](NC(=O)c2ccc(N3CCC(CN4CCC(n5ccc6c(N7CCC(=O)NC7=O)c(F)ccc65)CC4)CC3)c(F)c2)C(C)(C)[C@H]1Oc1ccc(C#N)c(Cl)c1 [Example 12, N-((1r,3r)-3-(3-Chloro-4-cyanophenoxy)-2,2,4,4-tetramethylcyclobutyl)-4-(4-((4-(4-(2,4-dioxotetrahydropyrimidin-1(2H)-yl)-5-fluoro-1H-indol-1-yl)piperidin-1-yl)methyl)piperidin-1-yl)-3-fluorobenzamide]	≥ 50
CC1(C)[C@H](NC(=O)c2ccc(N3CCC(CN4CC[C@H](n5ncc6c(N7CCC(=O)NC7=O)cccc65)[C@H](F)C4)CC3)c(F)c2)C(C)(C)[C@H]1Oc1ccc(C#N)c(Cl)c1 [Example 14, N-((1r,3r)-3-(3-Chloro-4-cyanophenoxy)-2,2,4,4-tetramethylcyclobutyl)-4-(4-(((3R,4S)-4-(4-(2,4-dioxotetrahydropyrimidin-1(2H)-yl)-1H-indazol-1-yl)-3-fluoropiperidin-1-yl)methyl)piperidin-1-yl)-3-fluorobenzamide]	≥ 50
COc1cc(O[C@H]2C(C)(C)[C@H](NC(=O)c3ccc(N4CCC(CN5CCC(n6ccc7c(N8CCC(=O)NC8=O)cccc76)CC5)CC4)c(F)c3)C2(C)C)ccc1C#N [Example 22, N-((1r,3r)-3-(4-Cyano-3-methoxyphenoxy)-2,2,4,4-tetramethylcyclobutyl)-4-(4-((4-(4-(2,4-dioxotetrahydropyrimidin-1(2H)-yl)-1H-indol-1-yl)piperidin-1-yl)methyl)piperidin-1-yl)-3-fluorobenzamide]	≥ 50
COc1cc(O[C@H]2C(C)(C)[C@H](NC(=O)c3ccc(N4CCC(CN5CCC(n6ccc7c(N8CCC(=O)NC8=O)c(F)ccc76)CC5)CC4)c(F)c3)C2(C)C)ccc1C#N [Example 23, N-((1r,3r)-3-(4-Cyano-3-methoxyphenoxy)-2,2,4,4-tetramethylcyclobutyl)-4-(4-((4-(4-(2,4-dioxotetrahydropyrimidin-1(2H)-yl)-5-fluoro-1H-indol-1-yl)piperidin-1-yl)methyl)piperidin-1-yl)-3-fluorobenzamide]	≥ 50
COc1cc(O[C@H]2C(C)(C)[C@H](NC(=O)c3ccc(N4CCC(CN5CCC(n6ncc7c(N8CCC(=O)NC8=O)cc(F)cc76)CC5)CC4)c(F)c3)C2(C)C)ccc1C#N [Example 24, N-((1r,3r)-3-(4-Cyano-3-methoxyphenoxy)-2,2,4,4-tetramethylcyclobutyl)-4-(4-((4-(4-(2,4-dioxotetrahydropyrimidin-1(2H)-yl)-6-fluoro-1H-indazol-1-yl)piperidin-1-yl)methyl)piperidin-1-yl)-3-fluorobenzamide]	≥ 50

More lines, now with the values ahead:

Dmax [%]	Compound
≥ 50	CC1(C)[C@H](NC(=O)c2ccc(N3CCC(CN4CCC(n5ncc6c(N7CCC(=O)NC7=O)cccc65)CC4)CC3)c(F)c2)C(C)(C)[C@H]1Oc1ccc(C#N)c(Cl)c1 [Example 1, N-((1r,3r)-3-(3-Chloro-4-cyanophenoxy)-2,2,4,4-tetramethylcyclobutyl)-4-(4-((4-(4-(2,4-dioxotetrahydropyrimidin-1(2H)-yl)-1H-indazol-1-yl)piperidin-1-yl)methyl)piperidin-1-yl)-3-fluorobenzamide]
≥ 50	Cc1c(O[C@H]2C(C)(C)[C@H](NC(=O)c3ccc(N4CCC(CN5CCC(n6ncc7c(N8CCC(=O)NC8=O)cccc76)CC5)CC4)c(F)c3)C2(C)C)ccc(C#N)c1Cl [Example 2, N-((1r,3r)-3-(3-Chloro-4-cyano-2-methylphenoxy)-2,2,4,4-tetramethylcyclobutyl)-4-(4-((4-(4-(2,4-dioxotetrahydropyrimidin-1(2H)-yl)-1H-indazol-1-yl)piperidin-1-yl)methyl)piperidin-1-yl)-3-fluorobenzamide]
≥ 50	CCOc1cc(O[C@H]2C(C)(C)[C@H](NC(=O)c3ccc(N4CCC(CN5CCC(n6ncc7c(N8CCC(=O)NC8=O)cccc76)CC5)CC4)c(F)c3)C2(C)C)ccc1C#N [Example 4, N-((1r,3r)-3-(4-Cyano-3-ethoxyphenoxy)-2,2,4,4-tetramethylcyclobutyl)-4-(4-((4-(4-(2,4-dioxotetrahydropyrimidin-1(2H)-yl)-1H-indazol-1-yl)piperidin-1-yl)methyl)piperidin-1-yl)-3-fluorobenzamide]
≥ 50	COc1cc(O[C@H]2C(C)(C)[C@H](NC(=O)c3ccc(N4CCC(CN5CCC(n6ncc7c(N8CCC(=O)NC8=O)cccc76)CC5)CC4)c(F)c3)C2(C)C)ccc1C#N [Example 21, N-((1r,3r)-3-(4-Cyano-3-methoxyphenoxy)-2,2,4,4-tetramethylcyclobutyl)-4-(4-((4-(4-(2,4-dioxotetrahydropyrimidin-1(2H)-yl)-1H-indazol-1-yl)piperidin-1-yl)methyl)piperidin-1-yl)-3-fluorobenzamide]
